# Test results from patent US20070149580A1, “USE OF PEROXISOME PROLIFERATOR ACTIVATED RECEPTOR DELTA AGONISTS FOR THE TREATMENT OF MS AND OTHER DEMYELINATING DISEASES” (AVENTIS PHARMACEUTICALS INC., priority 2004, published 2007).
# How the values were obtained:
# Type in all cases: cell-based
# [1] = system: PPAR delta pathway in cultured rat oligodendrocytes; test: Quantitative PCR of PPAR delta pathway transcriptional markers (ADRP mRNA) in cultured rat oligodendrocytes; conditions: FIG. 4B
# Source text: (§1) • 1. Primary rat oligodendrocyte progenitor cells are obtained from the neocortex of newborn (postnatal days 2-3) rats or mice and are enriched, after removal of microglia, by mechanical separation from the astrocytic monolayer using a modification of the technique originally described by McCarthy and de Vellis (1980). • 2. Remove the meninges from neonatal rat brain and mechanically dissociate tissue. Plate cells on T75 flasks and feed cells with DMEM/F12+10% FBS. • 3. Collect oligodendrocytes growing on the astrocyte bed layer by shaking-off method fourteen days after the original prep date. Centrifuge the suspension and resuspend the cell pellet in serum free media (SFM; DMEM combined with 25 μg/ml transferring, 30 nM triiodothyronine, 20 nM hydrocortisone, 20 nM progesterone, 10 nM biotin, 1× trace elements, 30 nM selenium, 1 μg/ml putrescine, 0.1% BSA, 5 U/ml PenStrep, 10 μg/ml insulin) supplemented with the following growth factors: Platelet derived growth factor-AA (PDGF) and fibroblast growth factor-2 (FGF). • 4. Plate the cells on PDL-coated dishes and incubate at 37° C. with 6-7% CO2. • 5. Media components are replaced every 48 hr to keep the cells in a progenitor state. Progenitor Cell Passaging to Increase Cell Numbers for Screening Assays: • 1. […]
# (§2) • 1. […] PPAR delta pathway member transcript expression is quantitated using Sybr Green PCR Master Mix. • 4. […]
# [2] = system: cultured rat oligodendrocytes; test: Quantitative PCR of MBP mRNA in cultured rat oligodendrocytes; conditions: FIGS. 2 and 3
# Source text: as §1, §2
# [3] = biological target: T1, human PPAR alpha (Homo sapiens, UniProt Q07869); test: Cellular PPAR alpha GAL4/luciferase reporter assay (HEK reporter cell line)
# T1 construct: human PPAR alpha receptor (amino acids S167-Y468); expressed in transfected cells; host or cells: HEK cells, stably transfected (pcDNA3, CMV promoter)
# T1 sequence (Q07869 167-468): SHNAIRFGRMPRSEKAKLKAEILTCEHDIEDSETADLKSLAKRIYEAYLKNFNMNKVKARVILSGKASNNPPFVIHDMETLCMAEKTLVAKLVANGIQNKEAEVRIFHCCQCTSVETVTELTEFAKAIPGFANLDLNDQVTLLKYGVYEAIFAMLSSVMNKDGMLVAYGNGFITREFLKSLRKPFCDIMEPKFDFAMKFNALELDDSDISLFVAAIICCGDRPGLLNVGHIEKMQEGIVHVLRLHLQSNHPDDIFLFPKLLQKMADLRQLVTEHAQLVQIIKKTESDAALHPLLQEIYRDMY
# Procedure: The potency of substances which bind to human PPAR alpha and activate it in an agonistic manner is analyzed using a stably transfected HEK cell line (HEK=human embryo kidney) which is referred to here as PPAR alpha reporter cell line. It contains two genetic elements, a luciferase reporter element (pdeltaM-GAL4-Luc-Zeo) and a PPAR alpha fusion protein (GR-GAL4-humanPPAR alpha-LBD) which mediates expression of the luciferase reporter element depending on a PPAR alpha ligand. The stably and constitutively expressed fusion protein GR-GAL4-humanPPAR alpha-LBD binds in the cell nucleus of the PPAR alpha reporter cell line via the GAL4 protein portion to the GAL4 DNA binding motifs 5′-upstream of the luciferase reporter element which is stably integrated in the genome of the cell line. […] PPAR alpha ligands bind and activate the PPAR alpha fusion protein and thereby stimulate the expression of the luciferase reporter gene.
# The finished PPAR alpha reporter cell line which contains a luciferase reporter element and constitutively expresses the PPAR alpha fusion protein (GR-GAL4-human PPAR alpha-LBD) was isolated by selection with zeocin (0.5 mg/ml) and G418 (0.5 mg/ml).
# [4] = biological target: T2, Mouse PPAR delta (Mus musculus, UniProt P35396); test: Mouse PPAR delta GAL4/luciferase reporter assay
# T2 construct: expressed in transfected cells
# T2 sequence (P35396 1-440): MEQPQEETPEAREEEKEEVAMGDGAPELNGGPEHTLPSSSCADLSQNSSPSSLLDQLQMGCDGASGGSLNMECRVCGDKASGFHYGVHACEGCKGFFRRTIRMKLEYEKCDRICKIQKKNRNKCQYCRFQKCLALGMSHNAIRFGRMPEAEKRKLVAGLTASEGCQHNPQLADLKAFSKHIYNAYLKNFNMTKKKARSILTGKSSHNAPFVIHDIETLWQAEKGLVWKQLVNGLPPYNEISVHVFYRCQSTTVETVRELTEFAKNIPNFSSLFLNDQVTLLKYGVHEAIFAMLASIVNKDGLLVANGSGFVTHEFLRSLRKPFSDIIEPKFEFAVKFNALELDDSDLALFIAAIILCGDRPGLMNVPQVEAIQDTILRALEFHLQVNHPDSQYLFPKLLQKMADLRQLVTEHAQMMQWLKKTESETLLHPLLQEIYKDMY
# Procedure: The optimum nuclear receptor selectivity profile is determined by the GAL4/luciferase reporter assays.
Compound,ADRP mRNA [1],MBP mRNA [2],EC50 [3],EC50 [4]
Cc1cc(SCc2sc(-c3ccc(C(F)(F)F)cc3)nc2C)ccc1OCC(=O)O [Compound 1],upregulated,enhancement,,
CCCc1c(OCCCOc2ccc(OCC(=O)O)cc2)ccc(C(C)=O)c1O [Compound 2],,enhancement,1100 nM,1000 nM
